A word on the IC50: it is the concentration that inhibits the measured activity by half. A lower IC50 goes with greater potency.

The assay has as its target T1, human Gal-3 (Homo sapiens, UniProt P17931).
T1 construct: made in house; host or cells: E. coli Rosetta (DE3) pLysS
Kind of assay: Competitive inhibition of Gal-3 binding to immobilized ASF. Conditions: for IC50: 5 µM galectin-3 binding to immobilized ASF; for Relative potency: related to the corresponding tetrasaccharide (4 or 5); for Relative potency per glycan: related to the corresponding tetrasaccharide and to one binding site. As to the method:
Neo-glycoproteins were used as inhibitors of Gal-3 to ASF binding in competitive inhibition assays performed as described. The standard glycoprotein ASF (Sigma-Aldrich) was immobilized in microtiter plates as described above for neo-glycoproteins. After blocking, 5 µM Gal-3 and varying concentration of 11j, 11k, 11g and 12j, 12k, 12g were simultaneously incubated for 1 h followed by detection of bound Gal-3 as described above. Measured data were fitted and IC50 values calculated using Sigma Plot software (Systat software GmbH).

T1 sequence (P17931 whole entry): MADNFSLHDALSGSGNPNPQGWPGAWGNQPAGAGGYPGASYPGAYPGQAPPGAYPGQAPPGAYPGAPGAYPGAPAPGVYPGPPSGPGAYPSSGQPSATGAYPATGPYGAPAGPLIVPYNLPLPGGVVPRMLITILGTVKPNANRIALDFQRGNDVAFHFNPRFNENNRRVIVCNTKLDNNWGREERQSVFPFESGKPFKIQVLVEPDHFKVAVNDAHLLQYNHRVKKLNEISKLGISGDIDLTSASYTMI

Compound `CC(=O)N[C@@H]1[C@@H](O)[C@H](O[C@@H]2O[C@H](CO)[C@H](O)[C@H](O[C@@H]3O[C@H](CO)[C@@H](O[C@@H]4O[C@H](CO)[C@H](O)[C@H](O)[C@H]4O)[C@H](O)[C@H]3NC(C)=O)[C@H]2O)[C@@H](CO)O[C@H]1NC(=S)NCCNC(=O)OC(C)(C)C` [Compound 4, Galβ1, 4GlcNAcβ1, 3Galβ1, 4GlcNAcβ1-linker-NH2-tBoc] yielded a 50% inhibitory concentration (IC50) of 13 ± 3.43 µM. Also, where the note is “5 µM galectin-3, ASF”, the Relative potency is given as 1.0 ± 0.26 and the “Relative potency per glycan” value stood at 1.0 ± 0.26.

Turning to `CC(=O)N[C@@H]1[C@@H](O)[C@H](O[C@@H]2O[C@H](CO)[C@H](O)[C@H](O[C@@H]3O[C@H](CO)[C@@H](O[C@@H]4O[C@H](CO)[C@H](O)[C@H](O)[C@H]4NC(C)=O)[C@H](O)[C@H]3NC(C)=O)[C@H]2O)[C@@H](CO)O[C@H]1NC(=S)NCCNC(=O)OC(C)(C)C` [Compound 5, GalNAcβ1,4GlcNAcβ1,3Galβ1,4GlcNAcβ1-linker-NH2-tBoc], the IC50 is 7.23 ± 0.87 µM. For the same compound, the “Higher inhibition of Gal-3 binding compared to 4” value (5 µM galectin-3, ASF, compared with LacNAc-LacNAc (4)) is given as 1.5 fold. Also, under “5 µM galectin-3, ASF”, the Relative potency is 1.0 ± 0.12 and the “Relative potency per glycan” value was 1.0 ± 0.12.

(Values after PMC4598770, “Galectin Binding to Neo-Glycoproteins: LacDiNAc Conjugated BSA as Ligand for Human Galectin-3” (Biomolecules, 2015).)
